# Key:
# [1] = test system: mouse model of Parkinson's disease induced by MPTP; test: Mouse model of Parkinson's disease induced by MPTP (immunostaining of substantia nigra and striatum); type: in vivo
# TNF-α mRNA = test: Expression of TNF-α genes in LPS-stimulated BV-2 cells (RT-PCR); type: cell-based, mouse
# Method: (§1) RT-PCR for GTPCH, iNOS, TNF-α, IL-1β and COX-2
# (§2) 5 ? each of total RNA samples isolated from BV-2 cells were subjected to reverse-transcription (RT), and then polymerase chain reaction (PCR) for 30 cycles under the conditions of 94° C. for 30 seconds, 60° C. for 40 seconds and 72° C. for one minute. Primers used in the PCR were as follows: iNOS (forward, ATGTCCGAAG-CAAACATCAC; reverse, TAATGTC CAGGAAGTAGGTG), TNF-α (forward, CA-[…] reverse, CAGAGCAATGACTC-CAAAGTAGACCT), IL-1β (forward, […]; reverse, CAGGACAGGTAT AGATTCTTTCCTTT), COX-2 (forward, […]; reverse, […]), GTPCH (forward, GGATACCAGGAGACCAT CTCA; reverse, TAGCATGGTGC-TAGTGACAGT). RT-PCR for B2M was simultaneously performed as internal control. The PCR products were subjected to electrophoresis in a 1.5% agarose gel, thereby confirming the presence of a desired size of single band.
# The assay was performed to determine whether EHMTIQ (11a) affects TNF-α production in an activated microglial cell. LPS-stimulated BV-2 cell samples were treated with various concentrations of EHMTIQ (11a) and the expression of TNF-α genes was estimated by RT-PCR. The results are illustrated in FIG. 3.
# BV-2 cell = test: Production of NADPH oxidase-derived superoxide in LPS-stimulated BV-2 cells (WST-1); type: cell-based, mouse
# Method: Measurement of Superoxide Production
# BV-2 microglial cells were planted in a 96-well Petri dish at 0.5×10^5 cells/ml. After a 24-hour culture, the cells were washed twice with Hank's balanced salt solution (HBSS) without phenol red and treated with EHMTIQ (11a) and WST-1. However, some samples were not treated with 20 ? superoxide dismutase (SOD; 800 UI/ml). All samples were incubaed at 37° C. for 10 minutes. The absorbance of a sample was read at 450 nm using a SpectraMax Plus microplate spectrophotometer. The yield of superoxide was calculated according to difference in absorbance value between the samples with and without SOD.
# The activation of a microglial cell led to the activation of NADPH oxidase and the production of superoxide. Accordingly, the assay was performed to determine whether EHMTIQ (11a) affects production of NADPH oxidase-derived superoxide. The LPS-stimulated BV-2 cell samples were treated with various concentrations of EHMTIQ (11a) and then the level of released superoxide was measured. The results are illustrated in FIG. 2.
# [2] = Free-radical scavenging activity (DPPH); conditions: various concentrations
# Method: Measurement of Free-Radical Scavenging Activity
# Antioxidant activity was evaluated based on scavenging activity of 2,2-diphenyl-1-picrylhydrazyl (DPPH) radical. DPPH was dissolved in 80% methanol to make a final concentration of 100 ? . 8 ? of EHMTIQ (11a) dissolved in dimethyl sulfoxide reacted with 232 ? of DPPH radical solution. The reaction mixture was incubated for 25 minutes at RT, and then the absorbance of DPPH was measured at 517 nm using a SpectraMax GEMINI XS fluorescence spectrophotometer (Molecular Devices, Sunnyvale, Calif., USA).
# Free radicals produced by an activated microglial cell cause oxidative stress and structural transformation in protein, nucleic acid and lipids of a neuron, which lead to cell injury. Accordingly, the assay was performed to determine whether EHMTIQ (11a) has free radical scavenging activity.
# NF-kB p65 = NF-kB p65 shift to nucleus in LPS-treated cells (Western blot); type: cell-based, mouse; conditions: 10 (unit as image)
# Method: Assay for NF-kB p65 Shift to Nucleus
# The cells were washed with cold phosphate buffered saline (PBS) and gently suspended in 400 ? buffer solution containing 10 mM HEPES (pH 7.9), 10 mM KCl, 0.1 mM EDTA, 0.1 mM EGTA, 1 mM DTT and 0.5 mM PMSF. The cell suspension was placed on ice for 15 minutes, and reacted with 25 ? NP-40 (0.5%) for 10 seconds. Cen-trifugation for 30 seconds yielded nuclear pellets, which were then resuspended in 50 ? of cold PBS containing 20 mM HEPES (pH 7.9), 400 mM NaCl, and 1 mM each of DTT, EDTA, EGTA and PMSF. The suspension was vortexted for 15 minutes. The nuclear extract was centrifuged at 11,000×g for 15 minutes to get supernatant solution, whose protein content was measured. Equal amounts of the cell extract (5 ? ) were subjected to electrophoresis in a 10% SDS-polyacrylamide gel and then transferred onto a polyvinylidene difluoride-nitrocellulose membrane. The membrane was blocked with TBST containing 8% skim milk at RT for one hour, incubated with primary antibody, anti-NF-kB p65 antibody (1:500 dilution), at 4° C. overnight, and further incubated with secondary antibody conjugated with horseradish peroxidase for one more hour. Protein bands were detected by a chemiluminescence detection method according to the manufacturer's indication.
# A transcription factor, NF-kB, shifts into a nucleus to regulate expression of several inflammatory genes. […]
# COX-2 mRNA = test: Expression of COX-2 genes in LPS-stimulated BV-2 cells (RT-PCR); type: cell-based, mouse
# Method: as §1, §2
# The gene expression of cyclooxigenase-2 (COX-2) stimulating a prostaglandin synthesis causing oxidative stress to neurons increased by the activation of a microglial cell. LPS-stimulated BV-2 cell samples were treated with various concentrations of EHMTIQ (11a), and the expression of COX-2 genes was estimated by RT-PCR. The results are illustrated in FIG. 5.
# mouse liver cell = test: Toxicity to mouse liver cell; type: in vivo; conditions: FIG. 16
smiles,measurement,setting,value
"CCC(=O)N1CCc2cc(OC)c(O)cc2C1 [EHMTIQ (11a), 2-ethylcarbonyl-7-hydroxy-6-methoxy-1,2,3,4-tetrahydroisoquinoline]",activation of microglial cells in the substantia nigra (Iba-1 immunostaining),[1]; MPTP mouse (FIG. 13),inhibitory effect
same,dopaminergic neurons in the substantia nigra (TH immunostaining),[1]; MPTP mouse (FIG. 14),protective effect
same,degeneration of dopaminergic neurons in the substantia nigra (fluoroJade C and TH double labelling),"[1]; MPTP mouse (FIG. 14, right panels)",inhibitory effect
same,dopamine nerve terminals in the striatum (TH immunostaining),[1]; MPTP mouse (FIG. 15),protective effect
same,mRNA level of TNF-α,TNF-α mRNA; 2.5 (unit as image),decreased the mRNA level to a statistically significant level
same,mRNA level of TNF-α compared to the control only treated with LPS,TNF-α mRNA; 5 (unit as image),74±1%
same,mRNA level of TNF-α compared to the control only treated with LPS,TNF-α mRNA; 100 (unit as image),36±1%
same,superoxide production,BV-2 cell; 5 (unit as image),62±3.1%
same,superoxide production,BV-2 cell; 10 (unit as image),65±3.1%
same,scavenging activity of DPPH radicals,[2],proportional to the concentration
same,NF-kB p65 in nuclear fraction,NF-kB p65,completely inhibited
same,COX-2 expression,COX-2 mRNA; 2.5 (unit as image),62±3%
same,COX-2 expression,COX-2 mRNA; 5 (unit as image),75±3%
same,COX-2 expression,COX-2 mRNA; 10 (unit as image),83±2%
same,toxicity to a mouse liver cell,mouse liver cell,non-toxicity

# From patent US20100217003A1, “1,2,3,4-TETRAHYDROISOQUINOLINE DERIVATIVES HAVING EFFECTS OF PREVENTING AND TREATING DEGENERATIVE AND INFLAMMATORY DISEASES” (priority 2006, published 2010)
